Measurements from the supplement of paper PMC5908809.

How the values were obtained:
Assay in all cases: relative IC50 (inflection point of fitted viability curve, relative to fitted max inhibition); higher = less sensitive
Conditions in all cases: 72 h
[1] = system: YT (IL-2 2.5 ng/mL)
Description: (§1)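 Drug sensitivity and resistance testing: 5 concentrations over a 10,000-fold range, 72 h at 37 °C, viability by CellTiter-Glo normalised to DMSO and benzethonium chloride controls. IC50 is the inflection point of a logistic fit (min fixed at 0, max fitted), so it is relative to the fitted maximal inhibition. Kept only where fitted max inhibition is at least 50%.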

[2] = system: KHYG-1 (IL-2 2.5 ng/mL)
Description: as §1

[3] = system: NK-92 (IL-2 2.5 ng/mL)
Description: as §1

[4] = system: IMC-1 (IL-2 20 ng/mL)
Description: as §1

[5] = system: KAI3 (IL-2 2.5 ng/mL)
Description: as §1

[6] = system: SNK-6 (IL-2 2.5 ng/mL)
Description: as §1

[7] = system: normal primary NK cells, pool 3 (3 donors) (IL-2 2.5 ng/mL)
Description: as §1

[8] = system: NKL (IL-2 2.5 ng/mL)
Description: as §1

[9] = system: normal primary NK cells, pool 2 (3 donors) (IL-2 2.5 ng/mL)
Description: as §1

[10] = system: DERL-7 (IL-2 2.5 ng/mL)
Description: as §1

[11] = system: NK-YS (IL-2 2.5 ng/mL)
Description: as §1

[12] = system: normal primary NK cells, pool 1 (3 donors), resting (IL-2 0 ng/mL)
Description: as §1

SMILES	relative IC50 [1] [nM]	relative IC50 [2] [nM]	relative IC50 [3] [nM]	relative IC50 [4] [µM]	relative IC50 [5] [nM]	relative IC50 [6] [nM]	relative IC50 [7] [nM]	relative IC50 [8] [nM]	relative IC50 [9] [nM]	relative IC50 [10] [nM]	relative IC50 [11] [nM]	relative IC50 [12] [nM]
CC[C@@]1(O)C(=O)OCc2c1cc1n(c2=O)Cc2cc3ccccc3nc2-1 [Camptothecin]	18.4	4.95	5.92	0.0142	0.88	3.1	278	1.47	547	9.21	3.56	–
O=C(c1ccc(OCCN2CCCCC2)cc1)c1c(-c2ccc(O)cc2)sc2cc(O)ccc12 [Raloxifene]	3070	1740	3290	–	2770	4500	–	1680	–	1740	–	–
COC1=CC(c2cc3ccccc3[nH]2)=N/C1=C\c1[nH]c(C)cc1C [Obatoclax]	–	–	449	–	–	–	–	247	–	–	–	1880
Nc1ncn([C@@H]2O[C@H](CO)[C@@H](O)[C@H]2O)c(=O)n1 [Azacitidine]	–	1520	1470	3.62	1150	384	–	3860	–	1440	1600	–
Cn1cc(-c2ccc3nnc(C(F)(F)c4ccc5ncccc5c4)n3n2)cn1	–	–	–	–	–	–	–	–	–	–	–	> 10000
CCC(C)n1ncn(-c2ccc(N3CCN(c4ccc(OCC5COC(Cn6cncn6)(c6ccc(Cl)cc6Cl)O5)cc4)CC3)cc2)c1=O (stereo unspecified) [Itraconazole]	–	1300	572	–	1030	503	–	1770	–	1160	1080	–
CO[C@H]1C[C@@H]2CC[C@@H](C)[C@@](O)(O2)C(=O)C(=O)N2CCCC[C@H]2C(=O)O[C@H]([C@H](C)C[C@@H]2CC[C@@H](OP(C)(C)=O)[C@H](OC)C2)CC(=O)[C@H](C)/C=C(\C)[C@@H](O)[C@@H](OC)C(=O)[C@H](C)C[C@H](C)/C=C/C=C/C=C/1C [Ridaforolimus]	–	9.75	–	> 0.1	–	0.53	–	0.18	–	1.04	0.4	–
C[C@]12CC[C@@H]3c4ccc(OC(=O)N(CCCl)CCCl)cc4CC[C@H]3[C@@H]1CC[C@@H]2O [Estramustine]	–	–	–	> 10	–	–	> 10000	–	–	–	–	–
C=CC(=O)N1CCC[C@@H](n2nc(-c3ccc(Oc4ccccc4)cc3)c3c(N)ncnc32)C1 [Ibrutinib]	–	–	–	> 1	–	–	–	–	–	–	–	–
CC(C)(C)c1cc(NC(=O)Nc2ccc(-c3cn4c(n3)sc3cc(OCCN5CCOCC5)ccc34)cc2)no1 [Quizartinib]	–	233	–	> 1	165	–	–	–	–	–	–	–
COc1cc(N2CCC(N3CCN(C)CC3)CC2)ccc1Nc1ncnc(Nc2ccccc2S(=O)(=O)C(C)C)n1 [ASP3026]	1830	1900	–	3.35	–	–	–	–	–	3110	–	–
O=P1(N(CCCl)CCCl)NCCCO1 (stereo unspecified) [Cyclophosphamide]	> 40000	> 40000	–	> 40	–	–	–	–	–	–	–	5790
COc1cc2nccc(Oc3ccc(NC(=O)Nc4cc(C)on4)c(Cl)c3)c2cc1OC [Tivozanib]	1490	1630	319	–	–	799	–	–	–	2780	1750	1520
COc1cc2c(Oc3ccc4[nH]c(C)cc4c3F)ncnc2cc1OCCCN1CCCC1 [Cediranib]	–	–	–	–	–	–	> 1000	–	–	–	–	–
N#Cc1ccc(COC[C@H]2O[C@@H](n3c(NCc4ccc(Cl)c(Cl)c4)nc4c(N)ncnc43)[C@H](O)[C@@H]2O)cc1	1710	1810	–	3.86	–	1150	> 10000	–	–	–	1310	–
CCc1cc2c(cc1N1CCC(N3CCOCC3)CC1)C(C)(C)c1[nH]c3cc(C#N)ccc3c1C2=O [Alectinib]	–	–	–	–	–	> 1000	> 1000	–	–	–	–	–
Nc1nc(N)c2nc(-c3cccc(O)c3)c(-c3cccc(O)c3)nc2n1 [TG100-115]	–	–	–	–	–	132	–	–	–	–	–	–
C[C@]1(O)C[C@@H](c2nc(-c3ccc4ccc(-c5ccccc5)nc4c3)c3c(N)nccn32)C1 [Linsitinib]	–	–	–	> 10	–	–	–	–	–	–	–	–
CCn1c(=O)c(-c2cc[nH]n2)cc2c(C)nc(N)nc21 [Voxtalisib]	1110	1640	685	–	818	3190	–	880	–	457	1340	–
CC(=O)Nc1cccc(-n2c(=O)n(C3CC3)c(=O)c3c(Nc4ccc(I)cc4F)n(C)c(=O)c(C)c32)c1 [Trametinib]	–	4.89	> 250	> 0.25	–	–	> 250	2.51	–	–	–	–
O=C(Cc1ccc(-c2ccc(OCCN3CCOCC3)cc2)cn1)NCc1ccccc1 [KX2-391]	23	30.3	12.3	0.0344	28.1	5.46	–	27.8	–	28.1	26.1	–
Clc1ccc(C(c2ccccc2Cl)C(Cl)Cl)cc1 (stereo unspecified) [Mitotane]	> 10000	> 10000	> 10000	> 10	> 10000	–	–	> 10000	> 10000	–	> 10000	–
O=C1CN2Cc3c(ccc(Cl)c3Cl)N=C2N1 [Anagrelide]	–	–	–	–	–	–	> 10000	–	–	–	–	–
CN(C)C1CCN(C(=O)c2ccc(NC(=O)Nc3ccc(-c4nc(N5CCOCC5)nc(N5CCOCC5)n4)cc3)cc2)CC1 [Gedatolisib]	147	–	–	–	85.9	75.6	–	14.7	–	27.4	32.5	–
CC(=O)O[C@@]12CO[C@@H]1C[C@H](O)[C@@]1(C)C(=O)[C@H](O)C3=C(C)[C@@H](OC(=O)[C@H](O)[C@@H](NC(=O)OC(C)(C)C)c4ccccc4)C[C@@](O)([C@@H](OC(=O)c4ccccc4)[C@H]21)C3(C)C [Docetaxel]	2.24	3.9	10.9	0.00314	2.14	0.8	–	1.84	–	3.18	2.02	–
Nc1cc(C(F)(F)F)c(-c2cc(N3CCOCC3)nc(N3CCOCC3)n2)cn1 [Buparlisib]	1210	781	734	3.9	887	42.9	–	269	–	1070	520	–
CNC(=O)c1cccc(-c2ccc3c(N4CCOC[C@@H]4C)nc(N4CCOC[C@@H]4C)nc3n2)c1 [AZD2014]	295	714	317	–	24.8	117	–	36.7	–	137	266	–
C[C@@H](Nc1cc(F)cc(F)c1)c1cc(C(=O)N(C)C)cc2c(=O)cc(N3CCOCC3)oc12 [AZD-8186]	–	–	–	> 1	–	–	> 1000	> 1000	–	–	–	–
